PubChem BioAssay (NCI)
Where “and” joins values, the source holds several entries; their conditions need not be identical. Identical values can stand only once.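 Values below derive from 48-hour exposures of cells grown in 96-well plates, with endpoints linearly interpolated between the two concentrations bracketing the appropriate inhibition level. Here, GI50 denotes the concentration required for 50% inhibition of growth. TGI: concentration producing complete growth inhibition.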

Columns and labels:
Test in all cases: NCI-60 cell line screen, 48 h
[1] = system: SNB-78 CNS
[2] = system: DMS 273 small cell lung
[3] = system: XF 498 CNS
[4] = system: DLD-1 colon
[5] = system: MDA-N
[6] = system: HOP-18 NSCLC
[7] = system: DMS 114 small cell lung
[8] = system: M19-MEL melanoma
[9] = system: RXF-631 renal
[10] = system: SN12K1 renal

| SMILES | TGI [1] | TGI [2] | TGI [3] | TGI [4] | TGI [6] | TGI [7] | TGI [8] | TGI [9] | also measured |
| --- | --- | --- | --- | --- | --- | --- | --- | --- | --- |
| Cn1c2cc([N+](=O)[O-])ccc2c(=O)c2c(O)cc3c(c21)C=CC(C)(C)O3 | > 100 µM | > 100 µM | 47.7 µM | > 100 µM | – | – | – | – | – |
| Cc1cc(=O)oc2cc(OC(=O)Nc3ccccc3)ccc12 | – | – | – | – | – | – | – | – | TGI [5]: > 100 µM |
| O=C([O-])CCc1ccccc1.O=C([O-])CCc1ccccc1.O=C([O-])CCc1ccccc1.O=C([O-])CCc1ccccc1.[Mo+2].[Mo+2] | – | – | – | > 100 µM | > 100 µM | > 100 µM | > 100 µM | – | GI50 [6]: > 100 µM; GI50 [4]: > 100 µM; GI50 [7]: > 100 µM; GI50 [8]: > 100 µM |
| CCC1c2cc3n(c(=O)c2COC1O)Cc1c-3nc2ccccc2c1Cl (centres undefined) | > 100 µM | > 100 µM | > 100 µM | > 100 µM | > 100 µM | > 100 µM | > 100 µM | – | – |
| C=C(COC(C)=O)CC(/C=C(\C)CC/C=C(\C)CO)OC(C)=O (centres undefined) | > 100 µM | > 100 µM | > 100 µM | > 100 µM | – | – | > 100 µM | > 100 µM | – |
| N#Cc1c(-c2ccccc2)cc(-c2cccs2)c(C#N)c1N | > 100 µM | > 100 µM | > 100 µM | > 100 µM | 0.0879 µM | – | – | – | – |
| NC(CO)c1ccc(OCc2ccccc2)cc1 (centres undefined) | > 100 µM | > 100 µM | > 100 µM | > 100 µM | > 100 µM | > 100 µM | > 100 µM | – | – |
| CC1(C)OC2C(CO)OC(n3ccc(N)nc3=O)C2O1 (centres undefined) | – | – | – | – | – | – | – | – | TGI [5]: > 100 µM |
| COC(=O)c1nc(C(=O)OC)c2c([nH]c3ccccc32)c1C(=O)OC | > 100 µM | > 100 µM | > 100 µM | > 100 µM | – | > 100 µM | – | – | – |
| CC(=O)OCC1OC([Se-])C(OC(C)=O)C(OC(C)=O)C1OC(C)=O.N#CCC[PH+](CCC#N)CCC#N.[Au+] (centres undefined) | 79.3 µM | 49.7 µM | 34.6 µM | > 63.6 µM | 46.9 µM | – | > 27.9 µM | > 100 µM | GI50 [1]: 20.1 µM; GI50 [2]: 4.09 µM; GI50 [6]: 12.6 µM; GI50 [3]: 8.09 µM; GI50 [4]: 7.78 µM; GI50 [9]: 16 µM; GI50 [8]: 3.11 µM |
| CCc1cccc(CC)c1NC(=O)CC1SC(N)=NC1=O (centres undefined) | > 100 µM | > 100 µM | > 100 µM | – | > 100 µM | > 100 µM | > 100 µM | > 100 µM | – |
| C=CCC12CCC(=O)[C@@]1(C)CC=C(O)C2=O (some centres undefined) | > 100 µM | > 100 µM | – | > 100 µM | > 100 µM | > 100 µM | > 100 µM | – | – |
| O=c1c(O)cc2c(O)oc3c(=O)c(O)c(O)c4c(O)oc1c2c43 | > 100 µM | > 100 µM | – | > 100 µM | > 100 µM | 67.7 µM | 25 µM | – | – |
| O=C1C=CC(=O)N1c1ccc(I)cc1 | – | – | – | – | – | – | – | – | TGI [5]: 30.1 µM |
| COc1cc(C2C(C(=O)O)=C(COC(C)=O)Oc3cc4c(cc32)OCO4)cc(OC)c1OC(C)=O (centres undefined) | > 100 µM | > 100 µM | > 100 µM | > 100 µM | > 100 µM | > 100 µM | > 100 µM | > 100 µM | – |
| Cc1cc2c(cc1C)[n+](=O)c(C(=O)CC(=O)C(=O)Nc1ccccc1C(C)C)c(C)n2[O-] | > 100 µM | > 100 µM | > 100 µM | – | – | > 100 µM | > 100 µM | > 100 µM | – |
| O=C(O)CNCCc1ccccc1 | – | – | – | – | – | – | – | – | TGI [5]: > 100 µM |
| C#CCn1c(=O)c2cccnc2n(CC#C)c1=O | > 100 µM | > 100 µM | > 100 µM | > 100 µM | > 100 µM | – | – | – | – |
| C=C1C(=O)c2cc3c(cc2C(c2cc(OC)c(OC)c(OC)c2)[C@@H]1C(=O)O)OCO3 (some centres undefined) | > 100 µM | – | – | > 100 µM | > 100 µM | > 100 µM | > 100 µM | – | – |
| N#CC(/C(=N/NC(N)=S)C(=O)Nc1cccc(Cl)c1)c1ccccc1 (centres undefined) | – | > 100 µM | > 100 µM | > 100 µM | > 100 µM | > 100 µM | > 100 µM | > 100 µM | – |

| SMILES | TGI [1] | TGI [2] | TGI [3] | TGI [4] | TGI [6] | TGI [7] | TGI [8] | TGI [9] | also measured |
| --- | --- | --- | --- | --- | --- | --- | --- | --- | --- |
| COC1=CC(=O)OC(/C=C(C)/C=C/C2=C(C)CCCC2(C)C)C1 (centres undefined) | > 100 µM | > 100 µM | – | > 100 µM | – | > 100 µM | > 100 µM | – | – |
| CCc1nc2ccccc2c(=O)n1/N=C(\N=Nc1ccc(Cl)cc1)c1ccccc1 | 71.1 µM | 50 µM | – | > 100 µM | 71 µM | 59.3 µM | > 100 µM | – | – |
| Cc1ccc(NC(=O)/C(=N\NC(N)=S)C(C#N)c2ccccc2C)cc1C (centres undefined) | > 100 µM | > 100 µM | > 100 µM | > 100 µM | > 100 µM | > 100 µM | > 100 µM | > 100 µM | – |
| CCOC(=O)Nc1ccc2c(c1)N(C(=O)CCN(CC)CC)c1ccccc1S2 | – | > 68.8 µM and 77.9 µM | 33.4 µM and 10 µM | > 87.6 µM and 105 µM | – | 40.6 µM and 99.6 µM | > 71.1 µM and 124 µM | – | GI50 [1]: 41 µM; GI50 [3]: 0.626 µM; GI50 [4]: 32.9 µM; GI50 [7]: 36.2 µM; GI50 [8]: 56.2 µM; TGI [10]: 95.3 µM |
| O=C1C(=C([O-])c2ccccc2)C(=O)c2ccccc21.O=C1C(=C([O-])c2ccccc2)C(=O)c2ccccc21.[Co+2] | – | – | – | > 100 µM | > 100 µM | – | > 100 µM | – | GI50 [6]: 54.4 µM; GI50 [4]: > 100 µM; GI50 [8]: > 100 µM |
| O=[N+]([O-])/C=C/c1cc2ccc3ccccc3c2[nH]1 | – | – | – | – | – | – | – | – | TGI [5]: 4.79 µM |
| O=C(O)c1ccc(C(=O)O)c(C(=O)O)c1.[NH-]C1CCCCC1[NH-].[Pt+2] | 99.9 µM | 9.31 µM | 16.5 µM | > 87.4 µM | 84.6 µM | – | 46 µM | – | GI50 [1]: 24.6 µM; GI50 [2]: 0.417 µM; GI50 [6]: 11.8 µM; GI50 [3]: 1.8 µM; GI50 [4]: 5.25 µM; GI50 [8]: 1.41 µM; GI50 [5]: 1.15 µM; TGI [5]: 24.7 µM; GI50 [10]: 2.71 µM; TGI [10]: 19 µM |
| OCCCc1cnco1 | > 100 µM | > 100 µM | > 100 µM | > 100 µM | > 100 µM | – | > 100 µM | – | – |
| Cn1c(=O)c2[nH]c(CCCc3ccc([N+](=O)[O-])cc3)nc2n(C)c1=O | – | – | – | – | – | – | – | – | TGI [5]: > 100 µM |
| C/C(=N/NC(=S)N1CC2CCC(CC2)C1)c1cnccn1 | – | – | – | – | – | – | – | – | TGI [5]: 28.7 µM |
| Fc1ccc(C2SCc3nc4ccccc4n32)cc1F (centres undefined) | > 100 µM | 97.9 µM | > 100 µM | > 100 µM | > 100 µM | 77.8 µM | > 100 µM | > 100 µM | – |
| CC(=O)CC(=O)NC=O | > 100 µM | > 100 µM | > 100 µM | > 100 µM | > 100 µM | > 100 µM | > 100 µM | > 100 µM | – |
| NC(=S)N/N=C(\CCC(=O)Nc1ccccc1[N+](=O)[O-])CC(=O)c1ccco1 | > 100 µM | > 100 µM | > 100 µM | > 100 µM | > 100 µM | > 100 µM | > 100 µM | > 100 µM | – |
| O=C(O)CCC1CCc2cccc(OCC(=O)O)c2C1=O (centres undefined) | > 100 µM | > 100 µM | > 100 µM | > 100 µM | > 100 µM | > 100 µM | > 100 µM | – | – |
| CS(=N)(=O)CCC(N)P(=O)(O)O (centres undefined) | – | – | – | – | – | – | – | – | TGI [5]: > 100 µM |
| CC(=O)N(CCN1C(=O)c2ccccc2C1=O)CCN1C(=O)c2ccccc2C1=O | > 100 µM | > 100 µM | > 100 µM | > 100 µM | – | > 100 µM | > 100 µM | – | – |
| NS(=O)(=O)c1ccc(N=C2C(=O)Nc3ccccc32)cc1 | – | – | – | – | – | – | – | – | TGI [5]: > 100 µM |
| O=C(N/C=C/C=C/Sc1ccccc1)OCc1ccccc1 | > 100 µM | 31.4 µM | 43.9 µM | 29 µM | 65 µM | 32.3 µM | 31.5 µM | 39.3 µM | – |
| O=[N+]([O-])c1ccc(/C(Cl)=C/c2ccc(/C=C(\Cl)c3ccc([N+](=O)[O-])cc3[N+](=O)[O-])cc2)c([N+](=O)[O-])c1 | > 100 µM | > 100 µM | – | > 100 µM | – | > 100 µM | > 100 µM | > 100 µM | – |
